Measurements as given in PubChem BioAssay (NCI).
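Method: 48-hour compound exposure of cells in 96-well plates, five concentrations, linear interpolation of endpoints. Definition used: TGI = concentration required for complete inhibition of growth.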

Assays:
Assay in all cases: growth of human tumour cells (NCI), 48 h
786-0 renal = system: 786-0 renal
A498 renal = system: A498 renal
A549 NSCLC = system: A549 NSCLC
ACHN renal = system: ACHN renal
BT-549 breast = system: BT-549 breast
CCRF-CEM leukemia = system: CCRF-CEM leukemia
COLO 205 colon = system: COLO 205 colon
DU-145 prostate = system: DU-145 prostate
EKVX NSCLC = system: EKVX NSCLC
HCT-116 colon = system: HCT-116 colon
HCT-15 colon = system: HCT-15 colon
HL-60(TB) leukemia = system: HL-60(TB) leukemia
HOP-62 NSCLC = system: HOP-62 NSCLC
HOP-92 NSCLC = system: HOP-92 NSCLC
HS 578T breast = system: HS 578T breast
HT29 colon = system: HT29 colon
IGROV1 ovarian = system: IGROV1 ovarian
K-562 leukemia = system: K-562 leukemia
LOX IMVI melanoma = system: LOX IMVI melanoma
M14 melanoma = system: M14 melanoma
MALME-3M melanoma = system: MALME-3M melanoma
MCF7 breast = system: MCF7 breast
MDA-MB-231 breast = system: MDA-MB-231 breast
MDA-N = system: MDA-N
MOLT-4 leukemia = system: MOLT-4 leukemia
NCI-H226 lung = system: NCI-H226 lung
NCI-H460 lung = system: NCI-H460 lung
NCI-H522 lung = system: NCI-H522 lung
NCI/ADR-RES ovarian = system: NCI/ADR-RES ovarian
OVCAR-3 ovarian = system: OVCAR-3 ovarian
OVCAR-5 ovarian = system: OVCAR-5 ovarian
OVCAR-8 ovarian = system: OVCAR-8 ovarian
PC-3 prostate = system: PC-3 prostate
RPMI-8226 leukemia = system: RPMI-8226 leukemia
RXF 393 renal = system: RXF 393 renal
SF-268 CNS = system: SF-268 CNS
SF-295 CNS = system: SF-295 CNS
SF-539 CNS = system: SF-539 CNS
SK-MEL-2 melanoma = system: SK-MEL-2 melanoma
SK-MEL-28 melanoma = system: SK-MEL-28 melanoma
SK-MEL-5 melanoma = system: SK-MEL-5 melanoma
SK-OV-3 ovarian = system: SK-OV-3 ovarian
SN12C renal = system: SN12C renal
SNB-19 CNS = system: SNB-19 CNS
SNB-75 CNS = system: SNB-75 CNS
SR leukemia = system: SR leukemia
SW-620 colon = system: SW-620 colon
T-47D breast = system: T-47D breast
TK-10 renal = system: TK-10 renal
U251 CNS = system: U251 CNS
UACC-257 melanoma = system: UACC-257 melanoma
UACC-62 melanoma = system: UACC-62 melanoma
UO-31 renal = system: UO-31 renal
CAKI-1 renal = system: CAKI-1 renal
HCC-2998 colon = system: HCC-2998 colon
KM12 colon = system: KM12 colon
MDA-MB-435 = system: MDA-MB-435
NCI-H23 lung = system: NCI-H23 lung
OVCAR-4 ovarian = system: OVCAR-4 ovarian

Cc1c(C)c(C)c(CC2(C)CSC2)c(CC2(C)CSC2)c1C
TGI (786-0 renal): > 100 µM | TGI (A498 renal): > 100 µM | TGI (A549 NSCLC): > 100 µM | TGI (ACHN renal): > 100 µM | TGI (BT-549 breast): > 100 µM | TGI (CCRF-CEM leukemia): > 100 µM | TGI (COLO 205 colon): > 100 µM | TGI (DU-145 prostate): > 100 µM | TGI (EKVX NSCLC): > 100 µM | TGI (HCT-116 colon): > 100 µM | TGI (HCT-15 colon): > 100 µM | TGI (HL-60(TB) leukemia): > 100 µM | TGI (HOP-62 NSCLC): > 100 µM | TGI (HOP-92 NSCLC): > 100 µM | TGI (HS 578T breast): > 100 µM | TGI (HT29 colon): > 100 µM | TGI (IGROV1 ovarian): > 100 µM | TGI (K-562 leukemia): > 100 µM | TGI (LOX IMVI melanoma): > 100 µM | TGI (M14 melanoma): > 100 µM | TGI (MALME-3M melanoma): > 100 µM | TGI (MCF7 breast): > 100 µM | TGI (MDA-MB-231 breast): > 100 µM | TGI (MDA-N): > 100 µM | TGI (MOLT-4 leukemia): > 100 µM | TGI (NCI-H226 lung): > 100 µM | TGI (NCI-H460 lung): > 100 µM | TGI (NCI-H522 lung): > 100 µM | TGI (NCI/ADR-RES ovarian): > 100 µM | TGI (OVCAR-3 ovarian): > 100 µM | TGI (OVCAR-5 ovarian): > 100 µM | TGI (OVCAR-8 ovarian): > 100 µM | TGI (PC-3 prostate): > 100 µM | TGI (RPMI-8226 leukemia): > 100 µM | TGI (RXF 393 renal): > 100 µM | TGI (SF-268 CNS): > 100 µM | TGI (SF-295 CNS): > 100 µM | TGI (SF-539 CNS): > 100 µM | TGI (SK-MEL-2 melanoma): > 100 µM | TGI (SK-MEL-28 melanoma): > 100 µM | TGI (SK-MEL-5 melanoma): > 100 µM | TGI (SK-OV-3 ovarian): > 100 µM | TGI (SN12C renal): > 100 µM | TGI (SNB-19 CNS): > 100 µM | TGI (SNB-75 CNS): > 100 µM | TGI (SR leukemia): > 100 µM | TGI (SW-620 colon): > 100 µM | TGI (T-47D breast): > 100 µM | TGI (TK-10 renal): > 100 µM | TGI (U251 CNS): > 100 µM | TGI (UACC-257 melanoma): > 100 µM | TGI (UACC-62 melanoma): > 100 µM | TGI (UO-31 renal): > 100 µM

COC(=O)/C(=N\NC(N)=O)C(C(=O)C(=O)Nc1ccccc1OC)c1nc2ccc([N+](=O)[O-])cc2[nH]c1=O (stereo unspecified)
TGI (786-0 renal): > 100 µM | TGI (A498 renal): > 100 µM | TGI (A549 NSCLC): > 100 µM | TGI (ACHN renal): > 100 µM | TGI (BT-549 breast): > 100 µM | TGI (CAKI-1 renal): > 100 µM | TGI (CCRF-CEM leukemia): > 100 µM | TGI (EKVX NSCLC): > 100 µM | TGI (HCC-2998 colon): > 100 µM | TGI (HCT-116 colon): > 100 µM | TGI (HCT-15 colon): > 100 µM | TGI (HL-60(TB) leukemia): > 100 µM | TGI (HOP-62 NSCLC): > 100 µM | TGI (HOP-92 NSCLC): > 100 µM | TGI (HS 578T breast): > 100 µM | TGI (HT29 colon): > 100 µM | TGI (IGROV1 ovarian): > 100 µM | TGI (K-562 leukemia): > 100 µM | TGI (KM12 colon): > 100 µM | TGI (LOX IMVI melanoma): > 100 µM | TGI (M14 melanoma): > 100 µM | TGI (MALME-3M melanoma): > 100 µM | TGI (MCF7 breast): > 100 µM | TGI (MDA-MB-231 breast): > 100 µM | TGI (MDA-MB-435): > 100 µM | TGI (MDA-N): > 100 µM | TGI (NCI-H226 lung): > 100 µM | TGI (NCI-H23 lung): > 100 µM | TGI (NCI-H460 lung): > 100 µM | TGI (NCI-H522 lung): > 100 µM | TGI (NCI/ADR-RES ovarian): > 100 µM | TGI (OVCAR-3 ovarian): > 100 µM | TGI (OVCAR-4 ovarian): > 100 µM | TGI (OVCAR-5 ovarian): > 100 µM | TGI (OVCAR-8 ovarian): > 100 µM | TGI (PC-3 prostate): > 100 µM | TGI (RPMI-8226 leukemia): > 100 µM | TGI (RXF 393 renal): > 100 µM | TGI (SF-268 CNS): > 100 µM | TGI (SF-295 CNS): > 100 µM | TGI (SF-539 CNS): > 100 µM | TGI (SK-MEL-2 melanoma): > 100 µM | TGI (SK-MEL-28 melanoma): > 100 µM | TGI (SK-MEL-5 melanoma): > 100 µM | TGI (SK-OV-3 ovarian): > 100 µM | TGI (SN12C renal): > 100 µM | TGI (SNB-19 CNS): > 100 µM | TGI (SNB-75 CNS): > 100 µM | TGI (SR leukemia): > 100 µM | TGI (SW-620 colon): > 100 µM | TGI (T-47D breast): > 100 µM | TGI (TK-10 renal): > 100 µM | TGI (U251 CNS): > 100 µM | TGI (UACC-257 melanoma): > 100 µM | TGI (UACC-62 melanoma): > 100 µM | TGI (UO-31 renal): > 100 µM

CC1(C)CC(O)C2=C(O1)C(=O)c1ncccc1C2=O (stereo unspecified)
TGI (786-0 renal): 3.62 µM | TGI (A498 renal): 18.6 µM | TGI (A549 NSCLC): 23.4 µM | TGI (ACHN renal): 11.5 µM | TGI (BT-549 breast): 3.18 µM | TGI (CAKI-1 renal): 4.45 µM | TGI (CCRF-CEM leukemia): > 20.7 µM | TGI (COLO 205 colon): 4.89 µM | TGI (DU-145 prostate): 10 µM | TGI (EKVX NSCLC): 6.76 µM | TGI (HCC-2998 colon): 14.6 µM | TGI (HCT-116 colon): 5.76 µM | TGI (HCT-15 colon): 12 µM | TGI (HL-60(TB) leukemia): 4.15 µM | TGI (HOP-62 NSCLC): 3.38 µM | TGI (HOP-92 NSCLC): 5.44 µM | TGI (HS 578T breast): 6.56 µM | TGI (HT29 colon): 35.8 µM | TGI (IGROV1 ovarian): 6.14 µM | TGI (KM12 colon): 8.17 µM | TGI (LOX IMVI melanoma): 3.4 µM | TGI (M14 melanoma): 4.22 µM | TGI (MALME-3M melanoma): 3.17 µM | TGI (MCF7 breast): 5.34 µM | TGI (MDA-MB-231 breast): 5.92 µM | TGI (MDA-MB-435): 3.3 µM | TGI (MDA-N): 3.45 µM | TGI (MOLT-4 leukemia): 4.55 µM | TGI (NCI-H226 lung): 3.74 µM | TGI (NCI-H23 lung): 3.24 µM | TGI (NCI-H460 lung): 5.89 µM | TGI (NCI-H522 lung): 3.86 µM | TGI (OVCAR-3 ovarian): 5.4 µM | TGI (OVCAR-4 ovarian): 3.15 µM | TGI (OVCAR-5 ovarian): 3.72 µM | TGI (OVCAR-8 ovarian): 9.34 µM | TGI (PC-3 prostate): 9.57 µM | TGI (RPMI-8226 leukemia): > 22.6 µM | TGI (RXF 393 renal): 12.3 µM | TGI (SF-268 CNS): 4.85 µM | TGI (SF-295 CNS): 3.35 µM | TGI (SF-539 CNS): 3.28 µM | TGI (SK-MEL-2 melanoma): 6.74 µM | TGI (SK-MEL-28 melanoma): 3.16 µM | TGI (SK-MEL-5 melanoma): 3.1 µM | TGI (SK-OV-3 ovarian): 27.4 µM | TGI (SN12C renal): 3.68 µM | TGI (SNB-19 CNS): 9.2 µM | TGI (SNB-75 CNS): 2.1 µM | TGI (SR leukemia): > 19.8 µM | TGI (SW-620 colon): 3.56 µM | TGI (T-47D breast): 5.91 µM | TGI (TK-10 renal): 20.1 µM | TGI (U251 CNS): 3.21 µM | TGI (UACC-257 melanoma): 3.19 µM | TGI (UACC-62 melanoma): 3.15 µM | TGI (UO-31 renal): 4.34 µM
